Consider 2 compounds from article PMC9866693, “Novel Benzimidazole Derived Imine Ligand and Its Co(III) and Cu(II) Complexes as Anticancer Agents: Chemical Synthesis, DFT Studies, In Vitro and In Vivo Biological Investigations” (Pharmaceuticals, 2023).

Series [1] deals with A549 cell line. As to the kind of experiment: MTT anti-proliferative assay, A549. To be noted: Homo sapiens, A549, 48 h, incubated for 2 days, read-out: IC50 against A549. It is filed as cell-based. The procedure:
(§1) In vitro anti-proliferative assays of the cultured cell lines A549, EAC, SIHA and NIH3T3, under laboratory conditions, were performed. The cells were developed in Dulbecco’s Modified Eagle Medium (DMEM) (Gibco-Invitrogen, Austin, TX, USA), in addition with heat-inactivated Foetel Bovine Serum (Invitrogen, Waltham, MA, USA), Pen Strep and followed by the addition of NaHCO3 (0.40%). The resulting component was incubated at 37 °C and maintained at 97% humidity and 90% air atmosphere. Exactly 10 µM of the synthesized ligand HBMF and its complexes (C1–C4), prepared using DMSO as a solvent, was used initially to assess their cytotoxicity and anti-proliferative activity in vitro using the MTT assay as described previously. 5-fluorouracil was used as a positive control and an appropriate vehicle control.
(§2) The various cell lines, such as A549, EAC, SIHA and NI3T3, were used initially to investigate the extent of preliminary proliferation against the MTT assay. The synthesized ligand, the complexes, and 5-fluorouracil were treated with all four cell lines as mentioned above. The cells were treated in the absence and presence of the ligand and its complexes and were incubated for 2 days. The effect of the proliferating cells and the color change was investigated by adding 5 mg/mL of 3-(4,5-Dimethylthiazol-2-yl)-2,5-Diphenyltetrazolium Bromide (MTT) reagent.
Background: Tetrazolium dyes change colour on reduction, which living cells bring about.

Series [2] has as its system Ehrlich–Lettre ascites carcinoma (EAC) cell line. As to the kind of experiment: MTT anti-proliferative assay, EAC. To be noted: 48 h, incubated for 2 days, read-out: IC50 against EAC. It is filed as cell-based. The procedure:
as §1, §2

Series [3] has as its system SIHA cell line. Put plainly: MTT anti-proliferative assay, SIHA. Type of series: cell-based. Particulars: Homo sapiens, 48 h, incubated for 2 days, read-out: IC50 against SIHA. The procedure: as §1, §2
Series [4] concerns NIH3T3 cell line. Put plainly: MTT anti-proliferative assay, NIH3T3. Type of series: cell-based. Particulars: Mus musculus, NIH3T3, 48 h, incubated for 2 days, read-out: IC50 against NIH3T3. The procedure:
as §1, §2

Series [5] can be described thus: Solubility and stability observations. Type of series: physicochemical. The source says:
Scheme 1 depicts the general route for the preparation of HBMF. Neutralization of the aqueous solution of 2-(aminomethyl) benzimidazole hydrochloride (0.100 g, 0.4543 mmol) was done in the first step of synthesis using an aqueous solution of potassium carbonate (0.0753 g, 0.5451 mmol) and then mixed with a methanolic solution of 5-fluorosalicyladihyde (0.0630 g, 0.4543 mmol). The resulting mixture was stirred at room temperature using a magnetic stirrer. The yellow precipitate obtained was filtered off and washed with water followed by petroleum ether and dried under vacuum. The completion of the reaction was monitored on pre-coated silica gel plates by the thin layer chromatography (TLC) method using chloroform and methanol as the solvent system in the ratio (9:1). The Schiff base thus obtained was insoluble in water but soluble in methanol, DMSO, etc. Elemental analysis for HBMF (C15H11FN3O): Calculated (%): C, 62.91; H, 4.33; F, 7.05; N, 14.59; O, 5.90. Found (%): C, 62.95; H, 4.36; F, 7.09; N, 14.65; O, 5.94. ^1H NMR (CDCl3, 400 MHz) ð: 5.09 [C1] (s, 2H, CH2); 6.86 [C7 and C6] (dd, 2H, Ar-H); 7.04–7.06 [C12 and C13] (t, 1H, Ar-H); 7.25 [C4] (d, 2H, Ar-H); 7.57 [C11] (d, 1H, Ar-H); 7.58 [C14] […]
Millimolar solutions of all the prepared metal complexes (C1-0.599, C2-0.615, C3-0.595, and C4-0.629 […]) were prepared using DMSO solvent and the conductance was measured (Table S1). […]

On to `O=c1[nH]cc(F)c(=O)[nH]1` [5‐FU, 5-fluorouracil, reference compound], for which the IC50 was found to be 7.2 ± 0.5 µM in series [1], 6.1 ± 1.8 µM in series [2], 6.2 ± 0.7 µM in series [3] and 7.8 µM in series [4].
Consider `Oc1ccc(F)cc1/C=N/Cc1nc2ccccc2[nH]1` [HBMF, 2-((E)-((1H-benzo[d]-2-yl)methylimino)methyl)-4-fluorophenol], for which the IC50 in series [1] worked out at 54.21 ± 0.4 µM; in series [2], 48 ± 0.3 µM; in series [3] it was 53.4 ± 0.7 µM; in series [4], 52.6 ± 0.4 µM. In addition, in series [5] (methanol, DMSO, etc.), the “Solubility in methanol, DMSO” value was “soluble”. In addition, the Solubility in water result in series [5] (water) is on record as “insoluble”.

For orientation: IC50 means the concentration needed to halve the response being measured.
